# Laboratory results reported in patent publication US20140024527A1, “HERBICIDAL PYRAZINONES” (E I DU DE NEMOURS AND COMPANY, priority 2011, published 2014).
# Key:
# Type in all cases: in vivo
# [1] = tested on: ducksalad (Heteranthera limosa); assay: Test B flooded paddy test; conditions: Flood, scale 0 to 100
# Text: (§1) Plant species in the flooded paddy test consisted of rice (Oryza sativa), umbrella sedge (Cyperus difformis), ducksalad (Heteranthera limosa) and barnyardgrass (Echinochloa crus-galli) grown to the 2-leaf stage for testing. At time of treatment, test pots were flooded to 3 cm above the soil surface, treated by application of test compounds directly to the paddy water, and then maintained at that water depth for the duration of the test. Treated plants and controls were maintained in a greenhouse for 13 to 15 days, after which time all species were compared to controls and visually evaluated. Plant response ratings, summarized in Table B, are based on a scale of 0 to 100 where 0 is no effect and 100 is complete control. A dash (-) response means no test result.
# rice (Oryza sativa) = assay: Test B flooded paddy test; conditions: Flood, scale 0 to 100
# Text: as §1
# [2] = tested on: umbrella sedge (Cyperus difformis); assay: Test B flooded paddy test; conditions: Flood, scale 0 to 100
# Text: as §1
# [3] = tested on: barnyardgrass (Echinochloa crus-galli); assay: Test B flooded paddy test; conditions: Flood
# Text: as §1
# [4] = tested on: giant foxtail (Setaria faberii); assay: Test A postemergence; conditions: 0 to 100 scale, 0 no effect, 100 complete control, approx. 10 days
# Text: (§2) Seeds of barnyardgrass (Echinochloa crus-galli), large crabgrass (Digitaria sanguinalis), giant foxtail (Setaria faberii), morningglory (Ipomoea spp.), pigweed (Amaranthus retroflexus), velvetleaf (Abutilon theophrasti), wheat (Triticum aestivum) and corn (Zea mays) were planted into a blend of loam soil and sand and treated preemergence with a directed soil spray using test chemicals formulated in a non-phytotoxic solvent mixture which included a surfactant. At the same time these species were also treated with postemergence applications of test compounds formulated in the same manner. Plants ranged in height from 2 to 10 cm and were in the one- to two-leaf stage for the postemergence treatments. Treated plants and untreated controls were maintained in a greenhouse for approximately 10 days, after which time all treated plants were compared to untreated controls and visually evaluated for injury. Plant response ratings, summarized in Table A, are based on a 0 to 100 scale where 0 is no effect and 100 is complete control.
# [5] = tested on: morningglory (Ipomoea spp.); assay: Test A postemergence; conditions: 0 to 100 scale, 0 no effect, 100 complete control, approx. 10 days
# Text: as §2
# [6] = tested on: wheat (Triticum aestivum); assay: Test A postemergence; conditions: 0 to 100 scale, 0 no effect, 100 complete control, approx. 10 days
# Text: as §2
# [7] = tested on: pigweed (Amaranthus retroflexus); assay: Test A postemergence; conditions: 0 to 100 scale, 0 no effect, 100 complete control, approx. 10 days
# Text: as §2
# [8] = tested on: large crabgrass (Digitaria sanguinalis); assay: Test A postemergence; conditions: 0 to 100 scale, 0 no effect, 100 complete control, approx. 10 days
# Text: as §2
# [9] = tested on: barnyardgrass (Echinochloa crus-galli); assay: Test A postemergence; conditions: 0 to 100 scale, 0 no effect, 100 complete control, approx. 10 days
# Text: as §2
# corn (Zea mays) [10] = assay: Test A postemergence; conditions: 0 to 100 scale, 0 no effect, 100 complete control, approx. 10 days
# Text: as §2
# [11] = tested on: velvetleaf (Abutilon theophrasti); assay: Test A postemergence; conditions: 0 to 100 scale, 0 no effect, 100 complete control, approx. 10 days
# Text: as §2
# [12] = tested on: giant foxtail (Setaria faberii); assay: Test A preemergence; conditions: 0 to 100 scale, 0 no effect, 100 complete control, approx. 10 days
# Text: as §2
# [13] = tested on: morningglory (Ipomoea spp.); assay: Test A preemergence; conditions: 0 to 100 scale, 0 no effect, 100 complete control, approx. 10 days
# Text: as §2
# [14] = tested on: wheat (Triticum aestivum); assay: Test A preemergence; conditions: 0 to 100 scale, 0 no effect, 100 complete control, approx. 10 days
# Text: as §2
# [15] = tested on: pigweed (Amaranthus retroflexus); assay: Test A preemergence; conditions: 0 to 100 scale, 0 no effect, 100 complete control, approx. 10 days
# Text: as §2
# [16] = tested on: large crabgrass (Digitaria sanguinalis); assay: Test A preemergence; conditions: 0 to 100 scale, 0 no effect, 100 complete control, approx. 10 days
# Text: as §2
# [17] = tested on: barnyardgrass (Echinochloa crus-galli); assay: Test A preemergence; conditions: 0 to 100 scale, 0 no effect, 100 complete control, approx. 10 days
# Text: as §2
# corn (Zea mays) [18] = assay: Test A preemergence; conditions: 0 to 100 scale, 0 no effect, 100 complete control, approx. 10 days
# Text: as §2
# [19] = tested on: velvetleaf (Abutilon theophrasti); assay: Test A preemergence; conditions: 0 to 100 scale, 0 no effect, 100 complete control, approx. 10 days
# Text: as §2
structure (smiles),measurement,setting,value
COCCCn1c(-c2cc(F)cc(F)c2)c(Cl)nc(C(=O)C2=C(O)CCCC2=O)c1=O [Compound 8],"Plant response rating, Ducksalad",[1]; 31 g ai/ha,0
same,"Plant response rating, Ducksalad",[1]; 62 g ai/ha,0
same,"Plant response rating, Ducksalad",[1]; 125 g ai/ha,30
same,"Plant response rating, Ducksalad",[1]; 250 g ai/ha,80
same,"Plant response rating, Rice",rice (Oryza sativa); 31 g ai/ha,0
same,"Plant response rating, Rice",rice (Oryza sativa); 62 g ai/ha,0
same,"Plant response rating, Rice",rice (Oryza sativa); 125 g ai/ha,0
same,"Plant response rating, Rice",rice (Oryza sativa); 250 g ai/ha,25
same,"Plant response rating, Sedge, Umbrella",[2]; 31 g ai/ha,0
same,"Plant response rating, Sedge, Umbrella",[2]; 62 g ai/ha,40
same,"Plant response rating, Sedge, Umbrella",[2]; 125 g ai/ha,40
same,"Plant response rating, Sedge, Umbrella",[2]; 250 g ai/ha,75
same,"Plant response rating, Barnyardgrass","[3]; 31 g ai/ha, scale 0 to 100",0
same,"Plant response rating, Barnyardgrass","[3]; 62 g ai/ha, scale 0 to 100",0
same,"Plant response rating, Barnyardgrass","[3]; 125 g ai/ha, scale 0 to 100",0
same,"Plant response rating, Barnyardgrass","[3]; 250 g ai/ha, scale 0 to 100 (0 no effect, 100 complete control)",40
same,"Plant response rating, Foxtail, Giant",[4]; 31 g ai/ha,0
same,"Plant response rating, Foxtail, Giant",[4]; 125 g ai/ha,10
same,"Plant response rating, Morningglory",[5]; 31 g ai/ha,0
same,"Plant response rating, Morningglory",[5]; 125 g ai/ha,50
same,"Plant response rating, Wheat",[6]; 31 g ai/ha,0
same,"Plant response rating, Wheat",[6]; 125 g ai/ha,0
same,"Plant response rating, Pigweed",[7]; 31 g ai/ha,20
same,"Plant response rating, Pigweed",[7]; 125 g ai/ha,40
same,"Plant response rating, Crabgrass, Large",[8]; 31 g ai/ha,0
same,"Plant response rating, Crabgrass, Large",[8]; 125 g ai/ha,30
same,"Plant response rating, Barnyardgrass",[9]; 31 g ai/ha,0
same,"Plant response rating, Barnyardgrass",[9]; 125 g ai/ha,10
same,"Plant response rating, Corn",corn (Zea mays) [10]; 31 g ai/ha,0
same,"Plant response rating, Corn",corn (Zea mays) [10]; 125 g ai/ha,0
same,"Plant response rating, Velvetleaf",[11]; 31 g ai/ha,10
same,"Plant response rating, Velvetleaf",[11]; 125 g ai/ha,50
same,"Plant response rating, Foxtail, Giant",[12]; 31 g ai/ha,0
same,"Plant response rating, Foxtail, Giant",[12]; 125 g ai/ha,0
same,"Plant response rating, Morningglory",[13]; 31 g ai/ha,0
same,"Plant response rating, Morningglory",[13]; 125 g ai/ha,10
same,"Plant response rating, Wheat",[14]; 31 g ai/ha,0
same,"Plant response rating, Wheat",[14]; 125 g ai/ha,0
same,"Plant response rating, Pigweed",[15]; 31 g ai/ha,0
same,"Plant response rating, Pigweed",[15]; 125 g ai/ha,10
same,"Plant response rating, Crabgrass, Large",[16]; 31 g ai/ha,20
same,"Plant response rating, Crabgrass, Large",[16]; 125 g ai/ha,40
same,"Plant response rating, Barnyardgrass",[17]; 31 g ai/ha,0
same,"Plant response rating, Barnyardgrass",[17]; 125 g ai/ha,10
same,"Plant response rating, Corn",corn (Zea mays) [18]; 31 g ai/ha,0
same,"Plant response rating, Corn",corn (Zea mays) [18]; 125 g ai/ha,0
same,"Plant response rating, Velvetleaf",[19]; 31 g ai/ha,0
same,"Plant response rating, Velvetleaf",[19]; 125 g ai/ha,0
